Test results taken from patent US20260242419A1, “A CYCLIC PEPTIDE FOR TRAPPING INTERLEUKIN-1 BETA” (Merck Sharp & Dohme LLC, priority 2023, published 2026).
Starred links: 1 amine or outer side, 2 acyl side, 3 side chain; linkers in the order of their positions; H or OH if unused. Non-standard residues stand in square brackets, D forms with d. Residues, ends and D or L forms follow the SMILES beside them. Phe(4-(5-CO2H-2-pyrimidyl)) = N[C@@H](Cc1ccc(-c2ncc(C(=O)O)cn2)cc1)C(=O)O; Phe(4-(4-Ac-piperazinyl)) = CC(=O)N1CCN(c2ccc(C[C@H](N)C(=O)O)cc2)CC1; Trp(βS-Me,4-F) = C[C@@H](c1c[nH]c2cccc(F)c12)[C@H](N)C(=O)O; Bip(4'-COOH) = N[C@@H](Cc1ccc(-c2ccc(C(=O)O)cc2)cc1)C(=O)O; X37 = CC(=O)N1CCN(c2ccc(C[C@H](N[*:1])C(=O)[*:2])cn2)CC1; dPro(4R-Bzl(4-F)) = O=C(O)[C@H]1C[C@@H](Cc2ccc(F)cc2)CN1; X5 = O=C([C@H]1C[C@@H](Cc2ccccc2)CN1[*:1])[*:2]; Ala(pyrimidin-5-yl) = N[C@@H](Cc1cncnc1)C(=O)O; Phe(4-COOH) = N[C@@H](Cc1ccc(C(=O)O)cc1)C(=O)O; Pro(cis-4-F) = O=C(O)[C@@H]1C[C@H](F)CN1; 2Pal = N[C@@H](Cc1ccccn1)C(=O)O; 3Pal = N[C@@H](Cc1cccnc1)C(=O)O; 4Pal = N[C@@H](Cc1ccncc1)C(=O)O; Dab = NCC[C@H](N)C(=O)O; Aib = CC(C)(N)C(=O)O

The compounds below were run against T1, IL-1β (Homo sapiens, UniProt P01584) (assay: IL-6 assay in MRC5 cells: inhibition of IL-1β induced IL-6 secretion (AlphaLISA)). Conditions: inhibition of IL-1β induced IL-6 secretion in MRC5 cells; read-out: MRC5 IC50.
T1 construct: purchased BioLegend 579404
T1 sequence (P01584 117-269): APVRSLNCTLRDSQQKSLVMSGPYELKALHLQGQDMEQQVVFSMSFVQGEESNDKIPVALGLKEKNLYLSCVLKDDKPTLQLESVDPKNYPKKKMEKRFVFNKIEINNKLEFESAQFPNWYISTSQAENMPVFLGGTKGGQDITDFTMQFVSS
Assay type: cell-based
Method: Procedure for IL-6 Assay in MRC5 Cells
The inhibition of IL-1β induced IL-6 secretion was evaluated in MRC5 cells. Recombinant human IL-1β (BioLegend 579404) at 2λ EC80 concentration was prepared in seeding medium. EMEM (ATCC 30-2003) with 0.025% BSA (Sigma A9576), 1×penicillin/streptomycin (Gibco 15070-063), 1×NEAA (Gibco 11140-050), 1×GlutaMax (Gibco 35050-061), and 1×sodium pyruvate (Gibco 11360-070), 20 μL of IL-1β was added to a 384-well collagen-coated plate (Corning 354664) and pre-incubated at ambient temperature for 1 hour with 200 nL of compound dispensed using an ECHO 555 liquid handler. Human lung fibroblast MRC5 cells (ATCC CCL-171) were added at a density of 3000 cells/20 μL per well. The cells were prepared by passaging three times in growth medium, EMEM (ATCC 30-2003) with 10% fetal bovine serum (Gibco 16140-071), 1×penicillin/streptomycin (Gibco 15070-063), 1×NEAA (Gibco 11140-050), 1×GlutaMax (Gibco 35050-061), and 1×sodium pyruvate (Gibco 11360-070) in collagen-coated T175 flasks (Greiner 661950) and harvested in seeding medium after 5 minutes of 0.25% trypsin-EDTA (Gibco 25200-056) digestion. The 384-well collagen-coated plate, containing a final volume of 40 μL, was incubated at 37° C., 5% CO2 overnight. 5 μL of the conditioned medium was transferred to a 384-well AlphaLISA plate (PerkinElmer 6005350) for detection of IL-6 using the human AlphaLISA IL-6 kit (PerkinElmer AL223F) as per the manufacturer's protocol. 20 μL of the acceptor bead/biotinylated antibody mix was added to the 384-well AlphaLISA plate and incubated for 1 hour at ambient temperature. The donor bead mix was protected from light and 25 μL was added to the plate and incubated for 30 minutes at ambient temperature. The AlphaLISA plate was read on an EnVision multimode plate reader (Perkin Elmer model 2104) using the AlphaScreen setting (laser exc at 680 nm and emis at […]). Dose response curves and IC50 values were analyzed using a 4-parameter logistic equation in Spotfire software (Tibco, Palo Alto, CA).

SMILES | IC50
C[C@@H](c1c[nH]c2cccc(F)c12)[C@@H]1NC(=O)[C@@H]2C[C@H](F)CN2C(=O)CNC(=O)[C@H](Cc2ccc(C(=O)O)cc2)NC(=O)[C@H](Cc2ccncc2)NC(=O)[C@H](Cc2ccc(-c3ccc(C(=O)O)cc3)cc2)NC(=O)[C@H]2C[C@@H](Cc3ccccc3)CN2C(=O)CNC(=O)[C@H](CCN)NC(=O)[C@H](CCC(N)=O)NC(=O)[C@H](Cc2cncnc2)NC(=O)C(C)(C)NC(=O)[C@H](Cc2c[nH]c3ccccc23)NC(=O)[C@H](CCC(=O)O)NC(=O)C(C)(C)NC1=O [Example 29] (cyclo([Bip(4'-COOH)][4Pal][Phe(4-COOH)]G[Pro(cis-4-F)][Trp(βS-Me,4-F)][Aib]EW[Aib][Ala(pyrimidin-5-yl)]Q[Dab]G[X5])) | 19 pM
C[C@@H](c1c[nH]c2cccc(F)c12)[C@@H]1NC(=O)[C@@H]2C[C@H](F)CN2C(=O)CNC(=O)[C@H](Cc2ccc(C(=O)O)cc2)NC(=O)[C@H](Cc2ccncc2)NC(=O)[C@H](Cc2ccc(-c3ccc(C(=O)O)cc3)cc2)NC(=O)[C@H]2C[C@@H](Cc3ccccc3)CN2C(=O)CNC(=O)[C@H](CO)NC(=O)[C@H](CCC(N)=O)NC(=O)[C@H](Cc2cncnc2)NC(=O)C(C)(C)NC(=O)[C@H](Cc2c[nH]c3ccccc23)NC(=O)[C@H](CCC(=O)O)NC(=O)C(C)(C)NC1=O [Example 30] (cyclo([Bip(4'-COOH)][4Pal][Phe(4-COOH)]G[Pro(cis-4-F)][Trp(βS-Me,4-F)][Aib]EW[Aib][Ala(pyrimidin-5-yl)]QSG[X5])) | 26 pM
C[C@@H](c1c[nH]c2cccc(F)c12)[C@@H]1NC(=O)[C@@H]2C[C@H](F)CN2C(=O)CNC(=O)[C@H](Cc2ccc(C(=O)O)cc2)NC(=O)[C@H](Cc2ccncc2)NC(=O)[C@H](Cc2ccc(-c3ccc(C(=O)O)cc3)cc2)NC(=O)[C@H]2C[C@@H](Cc3ccccc3)CN2C(=O)CNC(=O)[C@H](CCN)NC(=O)[C@H](CCC(N)=O)NC(=O)[C@H](Cc2cncnc2)NC(=O)C(C)(C)NC(=O)[C@H](Cc2c[nH]c3ccccc23)NC(=O)[C@H](CCC(=O)O)NC(=O)C(C)(C)NC1=O [Example 31] (cyclo([Bip(4'-COOH)][4Pal][Phe(4-COOH)]G[Pro(cis-4-F)][Trp(βS-Me,4-F)][Aib]EW[Aib][Ala(pyrimidin-5-yl)]Q[Dab]G[X5])) | 24 pM
C[C@@H](c1c[nH]c2cccc(F)c12)[C@@H]1NC(=O)[C@@H]2C[C@H](F)CN2C(=O)CNC(=O)[C@H](Cc2ccc(C(=O)O)cc2)NC(=O)[C@H](Cc2ccncc2)NC(=O)[C@H](Cc2ccc(-c3ccc(C(=O)O)cc3)cc2)NC(=O)[C@H]2C[C@@H](Cc3ccc(F)cc3)CN2C(=O)CNC(=O)[C@H](CO)NC(=O)[C@H](CCC(N)=O)NC(=O)[C@H](CCCNC(=N)N)NC(=O)C(C)(C)NC(=O)[C@H](Cc2c[nH]c3ccccc23)NC(=O)[C@H](CCC(=O)O)NC(=O)C(C)(C)NC1=O [Example 32] (cyclo([Bip(4'-COOH)][4Pal][Phe(4-COOH)]G[Pro(cis-4-F)][Trp(βS-Me,4-F)][Aib]EW[Aib]RQSG[dPro(4R-Bzl(4-F))])) | 49 pM
C[C@@H](c1c[nH]c2cccc(F)c12)[C@@H]1NC(=O)[C@@H]2C[C@H](F)CN2C(=O)CNC(=O)[C@H](Cc2ccc(C(=O)O)cc2)NC(=O)[C@H](Cc2ccncc2)NC(=O)[C@H](Cc2ccc(-c3ccc(C(=O)O)cc3)cc2)NC(=O)[C@H]2C[C@@H](Cc3ccc(F)cc3)CN2C(=O)CNC(=O)[C@H](CCN)NC(=O)[C@H](CCC(N)=O)NC(=O)[C@H](CCCNC(=N)N)NC(=O)C(C)(C)NC(=O)[C@H](Cc2c[nH]c3ccccc23)NC(=O)[C@H](CCC(=O)O)NC(=O)C(C)(C)NC1=O [Example 33] (cyclo([Bip(4'-COOH)][4Pal][Phe(4-COOH)]G[Pro(cis-4-F)][Trp(βS-Me,4-F)][Aib]EW[Aib]RQ[Dab]G[dPro(4R-Bzl(4-F))])) | 33 pM
C[C@@H](c1c[nH]c2cccc(F)c12)[C@@H]1NC(=O)[C@@H]2C[C@H](F)CN2C(=O)CNC(=O)[C@H](Cc2ccc(C(=O)O)cc2)NC(=O)[C@H](Cc2ccncc2)NC(=O)[C@H](Cc2ccc(-c3ccc(C(=O)O)cc3)cc2)NC(=O)[C@H]2C[C@@H](Cc3ccc(F)cc3)CN2C(=O)CNC(=O)[C@H](CO)NC(=O)[C@H](CCC(N)=O)NC(=O)[C@H](Cc2cccnc2)NC(=O)C(C)(C)NC(=O)[C@H](Cc2c[nH]c3ccccc23)NC(=O)[C@H](CCC(=O)O)NC(=O)C(C)(C)NC1=O [Example 34] (cyclo([Bip(4'-COOH)][4Pal][Phe(4-COOH)]G[Pro(cis-4-F)][Trp(βS-Me,4-F)][Aib]EW[Aib][3Pal]QSG[dPro(4R-Bzl(4-F))])) | 32 pM
C[C@@H](c1c[nH]c2cccc(F)c12)[C@@H]1NC(=O)[C@@H]2C[C@H](F)CN2C(=O)CNC(=O)[C@H](Cc2ccc(C(=O)O)cc2)NC(=O)[C@H](Cc2ccncc2)NC(=O)[C@H](Cc2ccc(-c3ccc(C(=O)O)cc3)cc2)NC(=O)[C@H]2C[C@@H](Cc3ccc(F)cc3)CN2C(=O)CNC(=O)[C@H](CCCNC(=N)N)NC(=O)[C@H](CCC(N)=O)NC(=O)[C@H](Cc2ccccc2)NC(=O)C(C)(C)NC(=O)[C@H](Cc2c[nH]c3ccccc23)NC(=O)[C@H](CCC(=O)O)NC(=O)C(C)(C)NC1=O [Example 35] (cyclo([Bip(4'-COOH)][4Pal][Phe(4-COOH)]G[Pro(cis-4-F)][Trp(βS-Me,4-F)][Aib]EW[Aib]FQRG[dPro(4R-Bzl(4-F))])) | 49 pM
C[C@@H](c1c[nH]c2cccc(F)c12)[C@@H]1NC(=O)[C@@H]2C[C@H](F)CN2C(=O)CNC(=O)[C@H](Cc2ccc(C(=O)O)cc2)NC(=O)[C@H](Cc2ccncc2)NC(=O)[C@H](Cc2ccc(-c3ccc(C(=O)O)cc3)cc2)NC(=O)[C@H]2C[C@@H](Cc3ccc(F)cc3)CN2C(=O)CNC(=O)[C@H](CO)NC(=O)[C@H](CCC(N)=O)NC(=O)[C@H](Cc2ccccn2)NC(=O)C(C)(C)NC(=O)[C@H](Cc2c[nH]c3ccccc23)NC(=O)[C@H](CCC(=O)O)NC(=O)C(C)(C)NC1=O [Example 36] (cyclo([Bip(4'-COOH)][4Pal][Phe(4-COOH)]G[Pro(cis-4-F)][Trp(βS-Me,4-F)][Aib]EW[Aib][2Pal]QSG[dPro(4R-Bzl(4-F))])) | 54 pM
CC(=O)N1CCN(c2ccc(C[C@@H]3NC(=O)[C@H]4C[C@@H](Cc5ccc(F)cc5)CN4C(=O)CNC(=O)[C@H](CCN)NC(=O)[C@H](CCC(N)=O)NC(=O)[C@H](Cc4cncnc4)NC(=O)C(C)(C)NC(=O)[C@H](Cc4c[nH]c5ccccc45)NC(=O)[C@H](CCC(=O)O)NC(=O)C(C)(C)NC(=O)[C@H]([C@@H](C)c4c[nH]c5cccc(F)c45)NC(=O)[C@@H]4C[C@H](F)CN4C(=O)CNC(=O)[C@H](Cc4ccc(C(=O)O)cc4)NC(=O)[C@H](Cc4ccncc4)NC3=O)cc2)CC1 [Example 37] (cyclo([Phe(4-(4-Ac-piperazinyl))][4Pal][Phe(4-COOH)]G[Pro(cis-4-F)][Trp(βS-Me,4-F)][Aib]EW[Aib][Ala(pyrimidin-5-yl)]Q[Dab]G[dPro(4R-Bzl(4-F))])) | 33 pM
C[C@@H](c1c[nH]c2cccc(F)c12)[C@@H]1NC(=O)[C@@H]2C[C@H](F)CN2C(=O)CNC(=O)[C@H](Cc2ccc(C(=O)O)cc2)NC(=O)[C@H](Cc2ccncc2)NC(=O)[C@H](Cc2ccc(-c3ncc(C(=O)O)cn3)cc2)NC(=O)[C@H]2C[C@@H](Cc3ccc(F)cc3)CN2C(=O)CNC(=O)[C@H](CCN)NC(=O)[C@H](CCC(N)=O)NC(=O)[C@H](Cc2cncnc2)NC(=O)C(C)(C)NC(=O)[C@H](Cc2c[nH]c3ccccc23)NC(=O)[C@H](CCC(=O)O)NC(=O)C(C)(C)NC1=O [Example 38] (cyclo([Phe(4-(5-CO2H-2-pyrimidyl))][4Pal][Phe(4-COOH)]G[Pro(cis-4-F)][Trp(βS-Me,4-F)][Aib]EW[Aib][Ala(pyrimidin-5-yl)]Q[Dab]G[dPro(4R-Bzl(4-F))])) | 41 pM
CC(=O)N1CCN(c2ccc(C[C@@H]3NC(=O)[C@H]4C[C@@H](Cc5ccc(F)cc5)CN4C(=O)CNC(=O)[C@H](CCN)NC(=O)[C@H](CCC(N)=O)NC(=O)[C@H](Cc4cncnc4)NC(=O)C(C)(C)NC(=O)[C@H](Cc4c[nH]c5ccccc45)NC(=O)[C@H](CCC(=O)O)NC(=O)C(C)(C)NC(=O)[C@H]([C@@H](C)c4c[nH]c5cccc(F)c45)NC(=O)[C@@H]4C[C@H](F)CN4C(=O)CNC(=O)[C@H](Cc4ccc(C(=O)O)cc4)NC(=O)[C@H](Cc4ccncc4)NC3=O)cn2)CC1 [Example 39] (cyclo([X37][4Pal][Phe(4-COOH)]G[Pro(cis-4-F)][Trp(βS-Me,4-F)][Aib]EW[Aib][Ala(pyrimidin-5-yl)]Q[Dab]G[dPro(4R-Bzl(4-F))])) | 63 pM
